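Following 48 hours of exposure in 96-well plates, responses at five concentrations were used to interpolate endpoints linearly. GI50 = concentration required for 50% inhibition of growth.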 Active and inactive are the calls of the source. Cut-off read from the data, not from the text of the source: active = GI50 up to about 1.1 µM and inactive = higher.
Tests used:
Assay in all cases: NCI anticancer screen, dose series, 48 h
OVCAR-8 = tested on: OVCAR-8
HOP-62 = tested on: HOP-62
NCI-H226 = tested on: NCI-H226
TK-10 = tested on: TK-10
ACHN = tested on: ACHN
HCC 2998 = tested on: HCC 2998
SN12C = tested on: SN12C
SF-295 = tested on: SF-295
OVCAR-5 = tested on: OVCAR-5
CCRF-CEM = tested on: CCRF-CEM
SW-620 = tested on: SW-620
MCF7 = tested on: MCF7
A498 = tested on: A498
KM12 = tested on: KM12
UACC-62 = tested on: UACC-62
NCI-H23 = tested on: NCI-H23
U-251 = tested on: U-251
RPMI-8226 = tested on: RPMI-8226
OVCAR-4 = tested on: OVCAR-4

Measured: GI50

COC1O[C@@H]2CCN3C(=O)[C@@H](OC(=O)c4ccc([N+](=O)[O-])cc4)[C@H]1C23 (some centres undefined)
inactive: OVCAR-8 > 100 µM | HOP-62 > 100 µM | NCI-H226 > 100 µM | TK-10 > 100 µM | ACHN > 100 µM | HCC 2998 > 100 µM | SN12C > 100 µM | SF-295 > 100 µM | OVCAR-5 > 100 µM | CCRF-CEM > 100 µM | SW-620 > 100 µM | MCF7 > 100 µM | A498 64.7 µM | KM12 > 100 µM | UACC-62 > 100 µM | NCI-H23 > 100 µM | U-251 > 100 µM | RPMI-8226 > 100 µM

Cc1ccccc1C(=O)Oc1ccc(Oc2ccccc2)cc1
inactive: OVCAR-8 > 100 µM | HOP-62 > 100 µM | NCI-H226 > 100 µM | OVCAR-4 > 100 µM | TK-10 78.2 µM | ACHN 28.4 µM | HCC 2998 86.1 µM | SN12C > 100 µM | SF-295 > 100 µM | OVCAR-5 > 100 µM | CCRF-CEM 42.7 µM | SW-620 73.6 µM | A498 77.6 µM | KM12 > 100 µM | UACC-62 > 100 µM | NCI-H23 > 100 µM | U-251 > 100 µM | RPMI-8226 > 100 µM

Nc1c(C(=O)NC23CC4CC(CC(C4)C2)C3)[n+]([O-])c2ccccc2[n+]1[O-]
inactive: OVCAR-8 > 100 µM | HOP-62 > 100 µM | NCI-H226 > 100 µM | OVCAR-4 > 100 µM | TK-10 > 100 µM | ACHN > 100 µM | HCC 2998 > 100 µM | SN12C > 100 µM | SF-295 > 100 µM | OVCAR-5 > 100 µM | CCRF-CEM > 100 µM | SW-620 > 100 µM | A498 > 100 µM | KM12 > 100 µM | UACC-62 > 100 µM | NCI-H23 > 100 µM | U-251 > 100 µM | RPMI-8226 > 100 µM

CC(=O)OC1CC2C(C)(C)OC(=O)CC(OC(C)=O)[C@]2(C)C2CCC3(C)C(=CCC3c3ccoc3)[C@]12C (some centres undefined)
inactive: OVCAR-8 18.1 µM | HOP-62 24 µM | NCI-H226 14.9 µM | OVCAR-4 46.5 µM | TK-10 49 µM | ACHN 25.1 µM | HCC 2998 18.4 µM | SN12C 32.6 µM | SF-295 18 µM | OVCAR-5 32.8 µM | CCRF-CEM 18.2 µM | SW-620 32.1 µM | A498 17.6 µM | KM12 30.6 µM | UACC-62 22.2 µM | NCI-H23 27.2 µM | U-251 37.6 µM | RPMI-8226 18.2 µM

O=c1nc(N2CCCC2)nc(N2CCCC2)s1
inactive: OVCAR-8 > 100 µM | HOP-62 > 100 µM | NCI-H226 7.21 µM | OVCAR-4 > 100 µM | TK-10 > 100 µM | ACHN > 100 µM | HCC 2998 > 100 µM | SN12C > 100 µM | SF-295 > 100 µM | OVCAR-5 > 100 µM | CCRF-CEM > 100 µM | SW-620 > 100 µM | A498 > 100 µM | KM12 > 100 µM | UACC-62 > 100 µM | NCI-H23 > 100 µM | U-251 > 100 µM | RPMI-8226 > 100 µM

COc1cc(-c2nnc3n2NC=C(C(=O)O)S3)cc(OC)c1OC
inactive: OVCAR-8 > 100 µM | HOP-62 > 100 µM | NCI-H226 > 100 µM | OVCAR-4 > 62.2 µM | TK-10 > 100 µM | ACHN > 100 µM | HCC 2998 > 100 µM | SN12C > 93.1 µM | SF-295 > 100 µM | OVCAR-5 > 100 µM | CCRF-CEM 29.7 µM | SW-620 > 39.5 µM | A498 > 100 µM | KM12 > 95.1 µM | UACC-62 > 93.5 µM | NCI-H23 > 100 µM | U-251 > 68.2 µM | RPMI-8226 > 49.4 µM

COc1cccc([C@@]2(O)c3c(ccc(O)c3OC)[C@H]2OC)c1OC
inactive: OVCAR-8 38.5 µM | HOP-62 60.5 µM | NCI-H226 43.5 µM | OVCAR-4 39.7 µM | TK-10 31.1 µM | ACHN 31.3 µM | HCC 2998 25.7 µM | SN12C 62.1 µM | SF-295 57.8 µM | OVCAR-5 > 100 µM | CCRF-CEM 45.4 µM | SW-620 28.6 µM | A498 58.1 µM | KM12 24.9 µM | UACC-62 > 10 µM | NCI-H23 43.9 µM | U-251 51.4 µM | RPMI-8226 39.1 µM

Cc1cnc[nH]c1=O
inactive: OVCAR-8 > 100 µM | HOP-62 > 100 µM | NCI-H226 > 100 µM | OVCAR-4 > 100 µM | TK-10 > 100 µM | ACHN > 100 µM | HCC 2998 > 100 µM | SN12C > 100 µM | SF-295 > 100 µM | OVCAR-5 > 100 µM | CCRF-CEM > 100 µM | SW-620 > 100 µM | A498 > 100 µM | KM12 > 100 µM | UACC-62 > 100 µM | NCI-H23 > 100 µM | U-251 > 100 µM | RPMI-8226 > 100 µM

From ChEMBL document CHEMBL1201862, “PubChem BioAssay data set” (2004)
